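Results reflect a 48-hour exposure of cells in 96-well plates to compound at five concentrations. GI50: concentration for 50% inhibition of growth. At the TGI there is no net growth.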
Key:
Assay in all cases: DTP human tumour cell line panel, 48 h
SN12C renal = system: SN12C renal
SF-268 CNS = system: SF-268 CNS
SK-MEL-5 melanoma = system: SK-MEL-5 melanoma
CAKI-1 renal = system: CAKI-1 renal
HT29 colon = system: HT29 colon
UO-31 renal = system: UO-31 renal
M14 melanoma = system: M14 melanoma
NCI-H460 lung = system: NCI-H460 lung
SNB-19 CNS = system: SNB-19 CNS
SK-MEL-28 melanoma = system: SK-MEL-28 melanoma
786-0 renal = system: 786-0 renal
SNB-75 CNS = system: SNB-75 CNS
HCT-15 colon = system: HCT-15 colon
T-47D breast = system: T-47D breast
LOX IMVI melanoma = system: LOX IMVI melanoma
HOP-62 NSCLC = system: HOP-62 NSCLC
MDA-MB-231 breast = system: MDA-MB-231 breast
NCI-H522 lung = system: NCI-H522 lung
OVCAR-3 ovarian = system: OVCAR-3 ovarian
KM12 colon = system: KM12 colon
OVCAR-8 ovarian = system: OVCAR-8 ovarian
IGROV1 ovarian = system: IGROV1 ovarian
OVCAR-4 ovarian = system: OVCAR-4 ovarian
SF-295 CNS = system: SF-295 CNS
RXF 393 renal = system: RXF 393 renal
NCI-H23 lung = system: NCI-H23 lung
K-562 leukemia = system: K-562 leukemia
UACC-257 melanoma = system: UACC-257 melanoma
PC-3 prostate = system: PC-3 prostate
MDA-MB-435 = system: MDA-MB-435
UACC-62 melanoma = system: UACC-62 melanoma
EKVX NSCLC = system: EKVX NSCLC
U251 CNS = system: U251 CNS
DU-145 prostate = system: DU-145 prostate
MALME-3M melanoma = system: MALME-3M melanoma
HCC-2998 colon = system: HCC-2998 colon
ACHN renal = system: ACHN renal
NCI-H226 lung = system: NCI-H226 lung
TK-10 renal = system: TK-10 renal
NCI/ADR-RES ovarian = system: NCI/ADR-RES ovarian
MCF7 breast = system: MCF7 breast
SK-MEL-2 melanoma = system: SK-MEL-2 melanoma
SF-539 CNS = system: SF-539 CNS
MOLT-4 leukemia = system: MOLT-4 leukemia
OVCAR-5 ovarian = system: OVCAR-5 ovarian
COLO 205 colon = system: COLO 205 colon
SK-OV-3 ovarian = system: SK-OV-3 ovarian
CCRF-CEM leukemia = system: CCRF-CEM leukemia
A498 renal = system: A498 renal
HCT-116 colon = system: HCT-116 colon
SR leukemia = system: SR leukemia
HOP-92 NSCLC = system: HOP-92 NSCLC
SW-620 colon = system: SW-620 colon
HS 578T breast = system: HS 578T breast
A549 NSCLC = system: A549 NSCLC
BT-549 breast = system: BT-549 breast

Compound `O=C(Nc1cccc(Cl)c1)c1cc(N=Nc2ccc([N+](=O)[O-])cc2Cl)ccc1O` has a GI50 (SN12C renal) of 2.86 µM, a TGI (SN12C renal) of 8.87 µM and a GI50 (SF-268 CNS) of 2.22 µM. It also gave a TGI (SF-268 CNS) of 11.4 µM, a GI50 (SK-MEL-5 melanoma) of 1.86 µM and a TGI (SK-MEL-5 melanoma) of 3.81 µM. It also gave a GI50 (CAKI-1 renal) of 1.93 µM, a TGI (CAKI-1 renal) of 4.02 µM and a GI50 (HT29 colon) of 2.83 µM. For the same compound, the TGI (HT29 colon) was 9.5 µM, the GI50 (UO-31 renal) was 2.16 µM and the TGI (UO-31 renal) was 6.08 µM. It also gave a GI50 (M14 melanoma) of 3.18 µM, a TGI (M14 melanoma) of 12.1 µM and a GI50 (NCI-H460 lung) of 2.74 µM. It also gave a TGI (NCI-H460 lung) of 7.92 µM, a GI50 (SNB-19 CNS) of 3.07 µM and a TGI (SNB-19 CNS) greater than 100 µM. It also gave a GI50 (SK-MEL-28 melanoma) of 2.88 µM, a TGI (SK-MEL-28 melanoma) of 10.9 µM and a GI50 (786-0 renal) of 2.93 µM. The TGI (786-0 renal) was 8.27 µM, the GI50 (SNB-75 CNS) was 2.65 µM and the TGI (SNB-75 CNS) was 20.5 µM. The GI50 (HCT-15 colon) was 1.89 µM, the TGI (HCT-15 colon) was 5.85 µM and the GI50 (T-47D breast) was 1.62 µM. The TGI (T-47D breast) was 5.57 µM, the GI50 (LOX IMVI melanoma) was 3.02 µM and the TGI (LOX IMVI melanoma) was 10.8 µM. It also gave a GI50 (HOP-62 NSCLC) of 3.27 µM, a TGI (HOP-62 NSCLC) of 9.46 µM and a GI50 (MDA-MB-231 breast) of 2.03 µM. It also gave a TGI (MDA-MB-231 breast) of 5.27 µM, a GI50 (NCI-H522 lung) of 2.94 µM and a TGI (NCI-H522 lung) of 6.95 µM. The GI50 (OVCAR-3 ovarian) was 1.06 µM, the TGI (OVCAR-3 ovarian) was 4.38 µM and the GI50 (KM12 colon) was 1.57 µM. The TGI (KM12 colon) was 4.61 µM, the GI50 (OVCAR-8 ovarian) was 3.04 µM and the TGI (OVCAR-8 ovarian) was 18 µM. For the same compound, the GI50 (IGROV1 ovarian) was 3.12 µM, the TGI (IGROV1 ovarian) was 19 µM and the GI50 (OVCAR-4 ovarian) was 2.67 µM. For the same compound, the TGI (OVCAR-4 ovarian) was greater than 100 µM, the GI50 (SF-295 CNS) was 1.49 µM and the TGI (SF-295 CNS) was 3.22 µM. The GI50 (RXF 393 renal) was 2.56 µM, the TGI (RXF 393 renal) was 6.99 µM and the GI50 (NCI-H23 lung) was 1.93 µM. It also gave a TGI (NCI-H23 lung) of 4.58 µM, a GI50 (K-562 leukemia) of 1.95 µM and a TGI (K-562 leukemia) of 4.72 µM. The GI50 (UACC-257 melanoma) was 2.55 µM, the TGI (UACC-257 melanoma) was 6.52 µM and the GI50 (PC-3 prostate) was 1.94 µM. For the same compound, the TGI (PC-3 prostate) was 6.36 µM, the GI50 (MDA-MB-435) was 2.34 µM and the TGI (MDA-MB-435) was 5.96 µM. The GI50 (UACC-62 melanoma) was 2.44 µM, the TGI (UACC-62 melanoma) was 6.65 µM and the GI50 (EKVX NSCLC) was 2.16 µM. It also gave a TGI (EKVX NSCLC) of 6.57 µM, a GI50 (U251 CNS) of 1.93 µM and a TGI (U251 CNS) of 7 µM. The GI50 (DU-145 prostate) was 1.43 µM, the TGI (DU-145 prostate) was 8.72 µM and the GI50 (MALME-3M melanoma) was 2.17 µM. For the same compound, the TGI (MALME-3M melanoma) was 5.92 µM, the GI50 (HCC-2998 colon) was 1.95 µM and the TGI (HCC-2998 colon) was 5.53 µM. For the same compound, the GI50 (ACHN renal) was 2.3 µM, the TGI (ACHN renal) was 6.46 µM and the GI50 (NCI-H226 lung) was 2.88 µM. For the same compound, the TGI (NCI-H226 lung) was 16.6 µM, the GI50 (TK-10 renal) was 2.24 µM and the TGI (TK-10 renal) was 6.92 µM. For the same compound, the GI50 (NCI/ADR-RES ovarian) was 2.27 µM, the TGI (NCI/ADR-RES ovarian) was 5.93 µM and the GI50 (MCF7 breast) was 2.03 µM. For the same compound, the TGI (MCF7 breast) was 5.79 µM, the GI50 (SK-MEL-2 melanoma) was 1.81 µM and the TGI (SK-MEL-2 melanoma) was 4.04 µM. The GI50 (SF-539 CNS) was 2.41 µM, the TGI (SF-539 CNS) was 8.61 µM and the GI50 (MOLT-4 leukemia) was 1.74 µM. For the same compound, the TGI (MOLT-4 leukemia) was 4.4 µM, the GI50 (OVCAR-5 ovarian) was 2.81 µM and the TGI (OVCAR-5 ovarian) was 10.6 µM. For the same compound, the GI50 (COLO 205 colon) was 3.19 µM, the TGI (COLO 205 colon) was 11 µM and the GI50 (SK-OV-3 ovarian) was 1.94 µM. The TGI (SK-OV-3 ovarian) was 6.63 µM, the GI50 (CCRF-CEM leukemia) was 2.16 µM and the TGI (CCRF-CEM leukemia) was 5.81 µM. For the same compound, the GI50 (A498 renal) was 1.94 µM, the TGI (A498 renal) was 4.51 µM and the GI50 (HCT-116 colon) was 2.81 µM. For the same compound, the TGI (HCT-116 colon) was 8.25 µM, the GI50 (SR leukemia) was 1.6 µM and the TGI (SR leukemia) was 4.29 µM. The GI50 (HOP-92 NSCLC) was 1.24 µM, the TGI (HOP-92 NSCLC) was 4.12 µM and the GI50 (SW-620 colon) was 2.95 µM. The GI50 (HS 578T breast) was 1.95 µM, the TGI (HS 578T breast) was 7.71 µM and the GI50 (A549 NSCLC) was 3.01 µM. For the same compound, the TGI (A549 NSCLC) was greater than 100 µM, the GI50 (BT-549 breast) was 2.35 µM and the TGI (BT-549 breast) was 7.31 µM.
